Experimental data reported in patent US20210161147A1, “BROAD SPECTRUM COSMETIC PRESERVATIVE SYSTEM” (priority 2019, published 2021).

Test system: microbes (bacteria and fungi)
Test: USP 51, Antimicrobial Effectiveness Test
Type: cell-based
Details: combined with 12.5 ppm colloidal silver; aqueous solution containing seaweed extract

## CS(C)(=O)=O [MSM, methylsulfonylmethane]
  sufficient concentration of MSM for effective cosmetic preservation per USP 51: 10 % (w/w)
